Results on four compounds are retold here after US8357733B2, “Processes for making silane, hydrophobated silica, silica masterbatch and rubber products” (Industrias Negromex, S.A. de C.V., priority 2008, dated 2013).

A short description of data set [1]: Solubility of silanes in water-isopropanol mixtures. The note with it: for Soluble?: water-isopropanol, 96.0 % water (wt.); for Water solubility: comparison methoxysilane vs ethoxysilane, see Table 4. In kind it is physicochemical. The method, then:
An aqueous solution of silane was prepared by charging to a vessel 4 grams of isopropanol, 0.7 grams of acetic acid and then 1.57 grams (4% by wt silica) of mercapto Propyl trimethoxysilane (Silquest A189). The mixture was then stirred vigorously at room temperature while 96 grams of water was slowly added. The mixture was then stirred for a further 15 minutes until the solution cleared.
The following experiments were conducted to examine the solubility of various silane coupling agents.

Assay in data set [2]: as above
In kind it is physicochemical. To be noted: for Soluble?: water-isopropanol.

Molecules are shown by their SMILES.

On to `CO[Si](CCCSSCCC[Si](OC)(OC)OC)(OC)OC` [TMSPD, bis-(3-trimethoxysilylpropyl)-disulfide], for which the “Soluble?” value is reported as “soluble” in data set [1] (pH 4.1) and “Yes” in data set [1] (pH 4.1, listed as TMSPD (Present invention)). Further, the “Solubility in 70/30 water/isopropanol mixture” value in data set [2] (TMSPD prepared using the Pletka process, no unusual precautions to purify the methanol) is “insoluble”.
As to `CCO[Si](CCCSSCCC[Si](OCC)(OCC)OCC)(OCC)OCC` [TESPD, bis-(3-triethoxysilylpropyl)-disulfide], the “Solubility in the water-alcohol mixture” value in data set [1] (procedure of comparative example 1A (4 grams isopropanol, 0.7 grams acetic acid, 96 grams water), high purity TESPD) is “not soluble”. Moreover, the “Soluble?” value is “soluble and Yes” in data set [2] (22.2 % water (wt.), pH 3.8); “insoluble and No” in data set [2] (27.8 % water (wt.), pH 3.5).
For `CO[Si](CCCS)(OC)OC` [MPTMS, mercaptopropyl trimethoxysilane], the Water solubility entry in data set [1] is “soluble”. Moreover, the “Soluble?” value in data set [1] (pH 3.5-4.0) is listed as “soluble”; in data set [1] (pH 3.5-4.0, listed as MPTMS (A189)), “Yes”; in data set [2] (63.2 % water (wt.), pH 3.5-4.0) it was “Yes”.
For `CCO[Si](CCCS)(OCC)OCC` [MPTES, mercaptopropyltriethoxysilane], the Water solubility entry in data set [1] is “insoluble”. For the same compound, in data set [2] (63.2 % water (wt.), pH 3.5-4.0), the “Soluble?” value is “insoluble and No”.
